Laboratory results published in article PMC8413292, “Small-molecule polymerase inhibitor protects non-human primates from measles and reduces shedding” (Nature Communications, 2021).
Values joined by “and” are separate entries in the source; they are usually repeats but may differ in a detail not shown here. Equal values may be shown once.

Experiments:
[1] = tested on: MV/FrankfurtMain.DEU/17.11 (genotype D8); test: Throat swab virus titers (shed virus, limited dilution); assay type: in vivo, squirrel monkeys (Saimiri sciureus)
Protocol: White blood cell counts, viral load quantification in PBMCs, and quantification of neutralizing antibody titers were performed as follows: for white blood cell counts, blood was diluted 1:100 in 3% acetic acid and cells were counted using a Neubauer chamber. For viral load quantification in PBMCs, blood was centrifuged at 3000 rpm for 15 min and serum was frozen at −20 °C until further use. Red blood cell lysis was performed and the remaining PBMCs were counted using a Neubauer chamber. Viral titers in PBMCs were quantified in quadruplicates using limited dilution method and calculated as TCID50/10^6 PBMCs. Neutralizing antibody titers were quantified by incubating MeV with 2-fold serial dilutions of the respective serum for 20 min at room temperature in quadruplicates. Vero/hSLAM cells were added and incubated for 3 days at 37 °C. Neutralizing antibody titers are expressed as the reciprocal of the highest serum dilution showing no signs of infection. For virus titration from throat swabs, swabs were placed in 150 μl DMEM with 3% penicillin/streptomycin and the titer was quantified by limited dilution method.

[2] = Necropsy and histology (H&E) for pharmacotoxicity; assay type: in vivo
Source text: After euthanasia, each animal was examined for gross pathological changes, and samples were collected for histopathological examination. After fixation, all tissue samples were embedded in paraffin. Histology slices were mounted and stained using standard H&E staining techniques.

Cn1nc(C(F)(F)F)cc1C(=O)Nc1ccc(S(=O)(=O)N2CCCC[C@H]2CCN2CCOCC2)cc1 [ERDRP-0519]
drop of shed virus titers (throat swab) compared to untreated animals ([1]; day 7 therapeutic group, within 72 h of treatment initiation): dropped significantly (p = 0.0199) by two orders of magnitude | Swab Titration, group mean (Mean 2) ([1]; prophylactic, Row 1 (0 d)): 0 log10(TCID50/ml) | Swab Titration, group mean (Mean 2) ([1]; prophylactic, Row 2 (3 d)): 0 log10(TCID50/ml) | Swab Titration, group mean (Mean 2) ([1]; prophylactic, Row 3 (7 d)): 0 log10(TCID50/ml) | Swab Titration, group mean (Mean 2) ([1]; prophylactic, Row 4 (10 d)): 0.4498 log10(TCID50/ml) | Swab Titration, group mean (Mean 2) ([1]; prophylactic, Row 5 (14 d)): 0 log10(TCID50/ml) | Swab Titration, group mean (Mean 2) ([1]; prophylactic, Row 6 (17 d)): 0.1165 log10(TCID50/ml) | Viral titers (throat swab), individual animals ([1]; prophylactic, time 10 d): 2.699 log10(TCID50/ml) | Viral titers (throat swab), individual animals ([1]; prophylactic, time 17 d): 0.699 log10(TCID50/ml) | Swab Titration, group mean (Mean 2) ([1]; therapeutic (d3), Row 1 (0 d)): 0 log10(TCID50/ml) | Swab Titration, group mean (Mean 2) ([1]; therapeutic (d3), Row 2 (3 d)): 0 log10(TCID50/ml) | Swab Titration, group mean (Mean 2) ([1]; therapeutic (d3), Row 3 (7 d)): 0.7332 log10(TCID50/ml) | Swab Titration, group mean (Mean 2) ([1]; therapeutic (d3), Row 4 (10 d)): 1.153 log10(TCID50/ml) | Swab Titration, group mean (Mean 2) ([1]; therapeutic (d3), Row 5 (14 d)): 0 log10(TCID50/ml) | Swab Titration, group mean (Mean 2) ([1]; therapeutic (d3), Row 6 (17 d)): 0 log10(TCID50/ml) | Viral titers (throat swab), individual animals ([1]; therapeutic (d3), time 7 d): 0.699 log10(TCID50/ml) and 2 log10(TCID50/ml) and 1.699 log10(TCID50/ml) | Viral titers (throat swab), individual animals ([1]; therapeutic (d3), time 10 d): 1.477 log10(TCID50/ml) (3×) and 2.477 log10(TCID50/ml) | Swab Titration, group mean (Mean 2) ([1]; therapeutic (d7), Row 1 (0 d)): 0 log10(TCID50/ml) | Swab Titration, group mean (Mean 2) ([1]; therapeutic (d7), Row 2 (3 d)): 0 log10(TCID50/ml) | Swab Titration, group mean (Mean 2) ([1]; therapeutic (d7), Row 3 (7 d)): 2.207 log10(TCID50/ml) | Swab Titration, group mean (Mean 2) ([1]; therapeutic (d7), Row 4 (10 d)): 0.9798 log10(TCID50/ml) | Swab Titration, group mean (Mean 2) ([1]; therapeutic (d7), Row 5 (14 d)): 0 log10(TCID50/ml) | Swab Titration, group mean (Mean 2) ([1]; therapeutic (d7), Row 6 (17 d)): 0 log10(TCID50/ml) | Viral titers (throat swab), individual animals ([1]; therapeutic (d7), time 7 d): 3.477 log10(TCID50/ml) and 2.699 log10(TCID50/ml) (2×) and 2.176 log10(TCID50/ml) (2×) | Viral titers (throat swab), individual animals ([1]; therapeutic (d7), time 10 d): 1.699 log10(TCID50/ml) and 1.477 log10(TCID50/ml) and 2.699 log10(TCID50/ml) | Swab Titration, Mean Diff, untreated vs. treated ([1]; untreated vs. prophylactic, Row 1 (0 d)): 0 log10(TCID50/ml) | Swab Titration, Mean Diff, untreated vs. treated ([1]; untreated vs. prophylactic, Row 2 (3 d)): 0 log10(TCID50/ml) | Swab Titration, Mean Diff, untreated vs. treated ([1]; untreated vs. prophylactic, Row 3 (7 d)): 1.98 log10(TCID50/ml) | Swab Titration, Mean Diff, untreated vs. treated ([1]; untreated vs. prophylactic, Row 4 (10 d)): 2.423 log10(TCID50/ml) | Swab Titration, Mean Diff, untreated vs. treated ([1]; untreated vs. prophylactic, Row 5 (14 d)): 0 log10(TCID50/ml) | Swab Titration, Mean Diff, untreated vs. treated ([1]; untreated vs. prophylactic, Row 6 (17 d)): 0.1302 log10(TCID50/ml) | Swab Titration, Mean Diff, untreated vs. treated ([1]; untreated vs. therapeutic (d3), Row 1 (0 d)): 0 log10(TCID50/ml) | Swab Titration, Mean Diff, untreated vs. treated ([1]; untreated vs. therapeutic (d3), Row 2 (3 d)): 0 log10(TCID50/ml) | Swab Titration, Mean Diff, untreated vs. treated ([1]; untreated vs. therapeutic (d3), Row 3 (7 d)): 1.247 log10(TCID50/ml) | Swab Titration, Mean Diff, untreated vs. treated ([1]; untreated vs. therapeutic (d3), Row 4 (10 d)): 1.72 log10(TCID50/ml) | Swab Titration, Mean Diff, untreated vs. treated ([1]; untreated vs. therapeutic (d3), Row 5 (14 d)): 0 log10(TCID50/ml) | Swab Titration, Mean Diff, untreated vs. treated ([1]; untreated vs. therapeutic (d3), Row 6 (17 d)): 0.2467 log10(TCID50/ml) | Swab Titration, Mean Diff, untreated vs. treated ([1]; untreated vs. therapeutic (d7), Row 1 (0 d)): 0 log10(TCID50/ml) | Swab Titration, Mean Diff, untreated vs. treated ([1]; untreated vs. therapeutic (d7), Row 2 (3 d)): 0 log10(TCID50/ml) | Swab Titration, Mean Diff, untreated vs. treated ([1]; untreated vs. therapeutic (d7), Row 3 (7 d)): -0.2268 log10(TCID50/ml) | Swab Titration, Mean Diff, untreated vs. treated ([1]; untreated vs. therapeutic (d7), Row 4 (10 d)): 1.893 log10(TCID50/ml) | Swab Titration, Mean Diff, untreated vs. treated ([1]; untreated vs. therapeutic (d7), Row 5 (14 d)): 0 log10(TCID50/ml) | Swab Titration, Mean Diff, untreated vs. treated ([1]; untreated vs. therapeutic (d7), Row 6 (17 d)): 0.2467 log10(TCID50/ml) | histological signs of pharmacotoxicity ([2]; all monkeys, day 21, 50 mg/kg b.i.d. 14 days): No histological signs of pharmacotoxicity were detected | liver histology of the deceased animal versus untreated control ([2]; day 3 therapeutic group animal deceased day 15): no pathological alternations
